# According to patent publication US20250332178A1, “METHODS OF TREATING MYCOBACTERIAL INFECTIONS USING TETRACYCLINE COMPOUNDS” (priority 2018, published 2025):
# Experiments:
# M. smegmatis group = assay: MIC (CLSI broth dilution), RGM isolates; assay type: cell-based
# Mycobacterium chelonae = assay: MIC by broth microdilution in CAMHB, clinical isolates; assay type: cell-based
# Method: (§1) A total of 24 clinical isolates of Mycobacterium abscessus, 22 clinical isolates of Mycobacterium chelonae and 20 clinical isolates of Mycobacterium fortuitum were tested in the study. The study also used the antibiotics tigecycline, doxycycline and amikacin for comparison purposes. […] Amikacin was dissolved in DMSO prior to freezing at −20° C. For susceptibility testing, stock solutions of antibiotic compounds were serially diluted in 50 μL of cation adjusted Mueller-Hinton broth (CAMHB) in polystryrene 96-well round-bottom microtiter plates. To each well, 50 μL of the appropriate mycobacterial cell suspension was added to yield a final concentration of about 1×10^5 CFU/mL. The inoculum used for each isolate was measured by titration in saline with Tween 80 and plating on MH agar. The Mycobacterium abscessus and Mycobacterium fortuitum titer plates were incubated at 37° C. in ambient air for 3-4 days and 5-7 days, respectively. The Mycobacterium chelonae titer plates were incubated at 30° C. in ambient air for 3-5 days. Each isolate was tested at least in duplicate. The MIC was defined as the lowest concentration of antimicrobial agent yielding no visible turbidity.
# Mycobacterium abscessus = assay: as above; assay type: cell-based
# Method: as §1
# Mycobacterium fortuitum = assay: as above; assay type: cell-based
# Method: as §1
# [1] = tested on: rapid-growing mycobacteria (RGM) isolates; assay: MIC (CLSI broth dilution), all RGM isolates; assay type: cell-based, nontuberculous mycobacteria; conditions: all 50 RGM isolates
# M. abscessus complex = assay: MIC (CLSI broth dilution), RGM isolates; assay type: cell-based
# M. mucogenium group = assay: MIC (CLSI broth dilution), RGM isolates; assay type: cell-based
# M. fortuitum group = assay: MIC (CLSI broth dilution), RGM isolates; assay type: cell-based
# M. immunogenum group = assay: MIC (CLSI broth dilution), RGM isolates; assay type: cell-based; conditions: M. immunogenum
# M. chelonae = assay: MIC (CLSI broth dilution), RGM isolates; assay type: cell-based
# [2] = 24 clinical isolates (tigecycline: subset N=14)
smiles,measurement,setting,value
"NCC[C@H](O)C(=O)N[C@@H]1C[C@H](N)[C@@H](O[C@H]2O[C@H](CN)[C@@H](O)[C@H](O)[C@H]2O)[C@H](O)[C@H]1O[C@H]1O[C@H](CO)[C@@H](O)[C@H](N)[C@H]1O [Amikacin, amikacin]",MIC,"M. smegmatis group; isolate 49, M. smegmatis group, M. goodii",≤2 µg/mL
same,MIC,"M. smegmatis group; isolate 50, M. smegmatis group, M. wolinskyi",≤2 µg/mL
same,MIC50,Mycobacterium chelonae; 22 clinical isolates,4 µg/mL
same,MIC90,Mycobacterium chelonae; 22 clinical isolates,8 µg/mL
same,MIC,"Mycobacterium chelonae; isolate No. 1, MC 7323",4 µg/mL
same,MIC,"Mycobacterium chelonae; isolate No. 2, MC 7534",8 µg/mL
same,MIC,"Mycobacterium chelonae; isolate No. 3, MC 7368",16 µg/mL
same,MIC,"Mycobacterium chelonae; isolate No. 4, MC 7514",8 µg/mL
same,MIC,"Mycobacterium chelonae; isolate No. 5, MC 7584",4 µg/mL
same,MIC,"Mycobacterium chelonae; isolate No. 6, MC 7192",4 µg/mL
same,MIC,"Mycobacterium chelonae; isolate No. 7, MC 7466",2 µg/mL
same,MIC,"Mycobacterium chelonae; isolate No. 8, MC 7533",4 µg/mL
same,MIC,"Mycobacterium chelonae; isolate No. 9, MC 7579",4 µg/mL
same,MIC,"Mycobacterium chelonae; isolate No. 10, MC 7614",8 µg/mL
same,MIC,"Mycobacterium chelonae; isolate No. 11, MC 7414",4 µg/mL
same,MIC,"Mycobacterium chelonae; isolate No. 12, MC 7313",2 µg/mL
same,MIC,"Mycobacterium chelonae; isolate No. 13, MC 7281",8 µg/mL
same,MIC,"Mycobacterium chelonae; isolate No. 14, MC 7328",8 µg/mL
same,MIC,"Mycobacterium chelonae; isolate No. 15, MC 7294",8 µg/mL
same,MIC,"Mycobacterium chelonae; isolate No. 16, MC 14-S-03",4 µg/mL
same,MIC,"Mycobacterium chelonae; isolate No. 17, MC 14-S-04",4 µg/mL
same,MIC,"Mycobacterium chelonae; isolate No. 18, MC 14-S-05",8 µg/mL
same,MIC,"Mycobacterium chelonae; isolate No. 19, MC 14-S-06",8 µg/mL
same,MIC,"Mycobacterium chelonae; isolate No. 20, MC 14-S-07",4 µg/mL
same,MIC,"Mycobacterium chelonae; isolate No. 21, MC 35757",2 µg/mL
same,MIC,"Mycobacterium chelonae; isolate No. 22, MC 7302",4 µg/mL
same,MIC50,Mycobacterium abscessus; [2],2 µg/mL
same,MIC90,Mycobacterium abscessus; [2],8 µg/mL
same,MIC,"Mycobacterium abscessus; isolate No. 1, BB2",8 µg/mL
same,MIC,"Mycobacterium abscessus; isolate No. 2, BB4",8 µg/mL
same,MIC,"Mycobacterium abscessus; isolate No. 3, 5922",2 µg/mL
same,MIC,"Mycobacterium abscessus; isolate No. 4, BB3",2 µg/mL
same,MIC,"Mycobacterium abscessus; isolate No. 5, BB6",4 µg/mL
same,MIC,"Mycobacterium abscessus; isolate No. 6, 5908",2 µg/mL
same,MIC,"Mycobacterium abscessus; isolate No. 7, BB7",0.5 µg/mL
same,MIC,"Mycobacterium abscessus; isolate No. 8, 6031",0.5 µg/mL
same,MIC,"Mycobacterium abscessus; isolate No. 9, 5785",1 µg/mL
same,MIC,"Mycobacterium abscessus; isolate No. 10, BB8",2 µg/mL
same,MIC,"Mycobacterium abscessus; isolate No. 11, 6111",2 µg/mL
same,MIC,"Mycobacterium abscessus; isolate No. 12, 6005",4 µg/mL
same,MIC,"Mycobacterium abscessus; isolate No. 13, 5605",2 µg/mL
same,MIC,"Mycobacterium abscessus; isolate No. 14, 5931",0.5 µg/mL
same,MIC,"Mycobacterium abscessus; isolate No. 15, BB1",2 µg/mL
same,MIC,"Mycobacterium abscessus; isolate No. 16, BB5",8 µg/mL
same,MIC,"Mycobacterium abscessus; isolate No. 17, 5812",4 µg/mL
same,MIC,"Mycobacterium abscessus; isolate No. 18, 5901",2 µg/mL
same,MIC,"Mycobacterium abscessus; isolate No. 19, 5960",1 µg/mL
same,MIC,"Mycobacterium abscessus; isolate No. 20, 6142",4 µg/mL
same,MIC,"Mycobacterium abscessus; isolate No. 21, 5922",2 µg/mL
same,MIC,"Mycobacterium abscessus; isolate No. 22, LT 949",8 µg/mL
same,MIC,"Mycobacterium abscessus; isolate No. 23, 6025",8 µg/mL
same,MIC,"Mycobacterium abscessus; isolate No. 24, 6153",8 µg/mL
same,MIC50,Mycobacterium fortuitum; 20 clinical isolates,0.5 µg/mL
same,MIC90,Mycobacterium fortuitum; 20 clinical isolates,4 µg/mL
same,MIC,"Mycobacterium fortuitum; isolate No. 1, 3349",8 µg/mL
same,MIC,"Mycobacterium fortuitum; isolate No. 2, 3499",0.25 µg/mL
same,MIC,"Mycobacterium fortuitum; isolate No. 3, 2797",2 µg/mL
same,MIC,"Mycobacterium fortuitum; isolate No. 4, 32",1 µg/mL
same,MIC,"Mycobacterium fortuitum; isolate No. 5, 33",2 µg/mL
same,MIC,"Mycobacterium fortuitum; isolate No. 6, 3489",1 µg/mL
same,MIC,"Mycobacterium fortuitum; isolate No. 7, 3491",1 µg/mL
same,MIC,"Mycobacterium fortuitum; isolate No. 8, 54",0.5 µg/mL
same,MIC,"Mycobacterium fortuitum; isolate No. 9, 38",0.5 µg/mL
same,MIC,"Mycobacterium fortuitum; isolate No. 10, 36",1 µg/mL
same,MIC,"Mycobacterium fortuitum; isolate No. 11, 3480",0.5 µg/mL
same,MIC,"Mycobacterium fortuitum; isolate No. 12, 3126",0.5 µg/mL
same,MIC,"Mycobacterium fortuitum; isolate No. 13, 3579",1 µg/mL
same,MIC,"Mycobacterium fortuitum; isolate No. 14, 7484",16 µg/mL
same,MIC,"Mycobacterium fortuitum; isolate No. 15, 3488",0.5 µg/mL
same,MIC,"Mycobacterium fortuitum; isolate No. 16, 3276",0.5 µg/mL
same,MIC,"Mycobacterium fortuitum; isolate No. 17, 3442",0.5 µg/mL
same,MIC,"Mycobacterium fortuitum; isolate No. 18, 3316",0.125 µg/mL
same,MIC,"Mycobacterium fortuitum; isolate No. 19, 3490",0.5 µg/mL
same,MIC,"Mycobacterium fortuitum; isolate No. 20, 2491",4 µg/mL
same,MIC50,[1],4 µg/mL
same,MIC90,[1],16 µg/mL
same,MIC,"M. abscessus complex; isolate 1, M. abscessus complex, erm gene type MAB30",8 µg/mL
same,MIC,"M. abscessus complex; isolate 2, M. abscessus complex, erm gene type MAB30",4 µg/mL
same,MIC,"M. abscessus complex; isolate 3, M. abscessus complex, erm gene type MAB30",16 µg/mL
same,MIC,"M. abscessus complex; isolate 4, M. abscessus complex, erm gene type massiliense",8 µg/mL
same,MIC,"M. abscessus complex; isolate 5, M. abscessus complex, erm gene type massiliense/subsp. abs hybrid",32 µg/mL
same,MIC,"M. abscessus complex; isolate 6, M. abscessus complex, erm gene type Type 1 abscessus",8 µg/mL
same,MIC,"M. abscessus complex; isolate 7, M. abscessus complex, erm gene type Type 1 abscessus",8 µg/mL
same,MIC,"M. abscessus complex; isolate 8, M. abscessus complex, erm gene type Type 1 abscessus",8 µg/mL
same,MIC,"M. abscessus complex; isolate 9, M. abscessus complex, erm gene type Type 1 abscessus",>64 µg/mL
same,MIC,"M. abscessus complex; isolate 10, M. abscessus complex, erm gene type Type 1 abscessus",16 µg/mL
same,MIC,"M. abscessus complex; isolate 11, M. abscessus complex, erm gene type Type 6 abscessus",16 µg/mL
same,MIC,"M. abscessus complex; isolate 12, M. abscessus complex, erm gene type Type 6 abscessus",8 µg/mL
same,MIC,"M. abscessus complex; isolate 13, M. abscessus complex, erm gene type Type 6 abscessus",4 µg/mL
same,MIC,"M. abscessus complex; isolate 14, M. abscessus complex, erm gene type Type 6 abscessus",16 µg/mL
same,MIC,"M. abscessus complex; isolate 15, M. abscessus complex, erm gene type Type 7 abscessus",8 µg/mL
same,MIC,"M. abscessus complex; isolate 16, M. abscessus complex, erm gene type Type 7 abscessus",16 µg/mL
same,MIC,"M. abscessus complex; isolate 17, M. abscessus complex, erm gene type Type 8 abscessus",4 µg/mL
same,MIC,"M. mucogenium group; isolate 39, M. mucogenicum group, M. mucogenicum",≤2 µg/mL
same,MIC,"M. mucogenium group; isolate 40, M. mucogenicum group, M. mucogenicum",≤2 µg/mL
same,MIC,"M. mucogenium group; isolate 41, M. mucogenicum group, M. mucogenicum",≤2 µg/mL
same,MIC,"M. mucogenium group; isolate 42, M. mucogenicum group, M. mucogenicum",≤2 µg/mL
same,MIC,"M. mucogenium group; isolate 43, M. mucogenicum group, M. phocaicum",≤2 µg/mL
same,MIC,"M. mucogenium group; isolate 44, M. mucogenicum group, M. phocaicum",≤2 µg/mL
same,MIC,"M. mucogenium group; isolate 45, M. mucogenicum group, M. phocaicum",≤2 µg/mL
same,MIC,"M. mucogenium group; isolate 46, M. mucogenicum group, M. phocaicum",≤2 µg/mL
same,MIC,"M. mucogenium group; isolate 47, M. mucogenicum group, M. phocaicum",≤2 µg/mL
same,MIC,"M. mucogenium group; isolate 48, M. mucogenicum group, M. phocaicum",≤2 µg/mL
same,MIC,"M. fortuitum group; isolate 23, M. fortuitum group, M. fortuitum",≤2 µg/mL
same,MIC,"M. fortuitum group; isolate 24, M. fortuitum group, M. fortuitum",≤2 µg/mL
same,MIC,"M. fortuitum group; isolate 25, M. fortuitum group, M. fortuitum",≤2 µg/mL
same,MIC,"M. fortuitum group; isolate 26, M. fortuitum group, M. porcinum",≤2 µg/mL
same,MIC,"M. fortuitum group; isolate 27, M. fortuitum group, M. porcinum",≤2 µg/mL
same,MIC,"M. fortuitum group; isolate 28, M. fortuitum group, M. porcinum/M. boenickei",≤2 µg/mL
same,MIC,"M. fortuitum group; isolate 29, M. fortuitum group, M. porcinum/M. boenickei",≤2 µg/mL
same,MIC,"M. fortuitum group; isolate 30, M. fortuitum group, M. porcinum/M. boenickei",≤2 µg/mL
same,MIC,"M. fortuitum group; isolate 31, M. fortuitum group, M. senegalense",≤2 µg/mL
same,MIC,"M. fortuitum group; isolate 32, M. fortuitum group, M. senegalense",≤2 µg/mL
same,MIC,"M. fortuitum group; isolate 33, M. fortuitum group, M. senegalense",≤2 µg/mL
same,MIC,"M. fortuitum group; isolate 34, M. fortuitum group, M. senegalense",≤2 µg/mL
same,MIC,"M. immunogenum group; isolate 35, M. immunogenum group",16 µg/mL
same,MIC,"M. immunogenum group; isolate 36, M. immunogenum group",4 µg/mL
same,MIC,"M. immunogenum group; isolate 37, M. immunogenum group",8 µg/mL
same,MIC,"M. immunogenum group; isolate 38, M. immunogenum group",8 µg/mL
same,MIC,"M. chelonae; isolate 18, M. chelonae",8 µg/mL
same,MIC,"M. chelonae; isolate 19, M. chelonae",16 µg/mL
same,MIC,"M. chelonae; isolate 20, M. chelonae",16 µg/mL
same,MIC,"M. chelonae; isolate 21, M. chelonae",16 µg/mL
same,MIC,"M. chelonae; isolate 22, M. chelonae",16 µg/mL
